Results from patent US20040023884A1, “Biologically active peptides from functional domains of bactericidal/permeability-increasing protein and uses thereof” (priority 1993, published 2004).
Converted amounts (≈) assume the structure as drawn. Square brackets hold non-standard residues; d marks the D form. Ends that are not written are not given here. Peptide text beside a SMILES is read from it. Phe(4-NH2) = Nc1ccc(C[C@H](N)C(=O)O)cc1; 1Nal = N[C@@H](Cc1cccc2ccccc12)C(=O)O; Cha = N[C@@H](CC1CCCCC1)C(=O)O

How the values were obtained:
[1] = system: C. albicans; test: Radial diffusion fungicidal assay, Candida albicans; assay type: cell-based; conditions: for C. albicans: pmol required for 30 mm^2 zone: radial diffusion
[2] = system: RAW 264.7 cells; test: LPS neutralization cellular proliferation assay, RAW 264.7 cells; assay type: cell-based, mouse
Procedure: In this assay, mouse RAW 264.7 cells (ATCC Accession No. T1B71), maintained in RPMI 1640 media (GIBCO), supplemented with 10 mM HEPES buffer (pH 7.4), 2 mM L-glutamine, penicillin (100U/mL), streptomcin (100 μg/mL), 0.075% sodium bicarbonate, […] 2-mercaptoethanol and 10% fetal bovine serum (Hyclone, Inc., Logan, Utah), were first induced by incubation in the presence of 50U/mL recombinant mouse y-interferon (Genzyme, Cambridge, Mass.) for 24 h prior to assay. Induced cells were then mechanically collected and centrifuged at 500×g at 4° C. and then resuspended in 50 mL RPMI 1640 media (without supplements), re-centrifuged and again resuspended in RPMI 1640 media (without supplements). The cells were counted and their concentration adjusted to 2×10^5 cells/mL and 100 μL aliquots were added to each well of a 96-well microtitre plate. The cells were then incubated for about 15 hours with E. coli O113 LPS (Control Standard. Assoc. of Cape Cod. Woods Hole, Mass.), which was added in 100 μL/well aliquots at a concentration of […] in serum-free RPMI 1640 media (this concentration being the result of titration experiments in which LPS concentration was varied between 50 pg/mL and 100 ng/mL). This incubation was performed in the absence or presence of BPI functional domain peptides in varying concentrations between 25 ng/mL and 50 μg/mL. Recombinant human BPI was used as a positive control at a concentration of 1 μg/mL. Cell proliferation was quantitatively measured by the addition of 1 μCi/well [^3H]-thymidine 5 hours after the time of initiation of the assay. After the 15-hour incubation, labeled cells were harvested onto glass fiber filters with a cell harvester (Inotech Biosystems, EQ-384, Sample Processing and Filter Counting System, Lansing, Mich.).

[3] = system: rough mutant E. coli J5 bacteria; test: Radial diffusion bactericidal assay, E. coli J5; assay type: cell-based; conditions: radial diffusion; PROBIT analysis; E. coli J5 (rough)
How it was run: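 Log-phase bacteria (3 h at 37 °C in tryptic soy broth), washed in 10 mM sodium phosphate pH 7.4, were embedded at 4×10^6 CFU/mL in underlayer agarose. BPI proteolytic fragments (5 or 10 μL) went into 3 mm wells for 3 h at 37 °C, then agarose overlay and overnight 37 °C growth. Clear zones were measured by micrometer.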

[4] = system: Staphylococcus aureus; test: Radial diffusion bactericidal assay, Staphylococcus aureus; assay type: cell-based; conditions: radial diffusion; PROBIT analysis; S. aureus
[5] = system: E. coli 0111:B4 (smooth) bacteria; test: Radial diffusion bactericidal assay, E. coli 0111:B4; assay type: cell-based; conditions: radial diffusion; PROBIT analysis; E. coli O111:B4 (smooth)
[6] = 3H-heparin binding assay (affinity and capacity); conditions: for Heparin Capacity: heparin bound at saturation; for Kd: read-out: Heparin Affinity
How it was run: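 Bound 3H-heparin was counted by liquid scintillation after 1 h incubation at 4 °C with fragments immobilised on PVDF-bottomed wells, then washing in blocking buffer. Signal was corrected for BSA-related background, and varying amounts of rBPI23 were used as positive control.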

[7] = system: Candida albicans; assay type: cell-based

Molecule	C. albicans: pmol required for 30 mm^2 zone [1] [pmol]	EC50 (peptide concentration at which the growth inhibitory effect of LPS was reversed by 50%) [2] [µg/mL]	pmol added to well to achieve a 30 mm^2 bactericidal zone, E. coli J5 [3]	pmol added to well to achieve a 30 mm^2 bactericidal zone, S. aureus [4]	pmol added to well to achieve a 30 mm^2 bactericidal zone, E. coli O111:B4 [5]	Heparin Capacity [6] [ng]	Kd [6] [µM]	MIC C. alb [7] [µg/mL]	fold decrease in the radial diffusion assay test (fungicidal activity) ([1]; vs BPI.13)
CC[C@H](C)[C@H](NC(=O)[C@H](CC(C)C)NC(=O)[C@H](Cc1cccc2ccccc12)NC(=O)CNC(=O)[C@@H](NC(=O)[C@H](CCCCN)NC(=O)[C@H](CO)NC(=O)[C@@H](N)CCCCN)C(C)C)C(=O)N[C@@H](CCC(N)=O)C(=O)N[C@@H](CC(C)C)C(=O)N[C@@H](Cc1ccccc1)C(=O)N[C@@H](Cc1c[nH]cn1)C(=O)N[C@@H](CCCCN)C(=O)N[C@@H](CCCCN)C(=O)O [BPI.83] (H-KSKVG[1Nal]LIQLFHKK-OH)	1804.26	1.2 ± 0.1	164.84 pmol	116,500.54 pmol	51,147.55 pmol	253.3	0.41		
CC[C@H](C)[C@H](NC(=O)[C@H](CC(C)C)NC(=O)[C@H](Cc1ccc(N)cc1)NC(=O)CNC(=O)[C@@H](NC(=O)[C@H](CCCCN)NC(=O)[C@H](CO)NC(=O)[C@@H](N)CCCCN)C(C)C)C(=O)N[C@@H](CCC(N)=O)C(=O)N[C@@H](CC(C)C)C(=O)N[C@@H](Cc1ccccc1)C(=O)N[C@@H](Cc1c[nH]cn1)C(=O)N[C@@H](CCCCN)C(=O)N[C@@H](CCCCN)C(=O)O [BPI.133] (H-KSKVG[Phe(4-NH2)]LIQLFHKK-OH; N-terminus and C-terminus assumed)	284.39		2,316.59 pmol	b (no detectable activity up to 5 μg/well)	b (no detectable activity up to 5 μg/well)			12.50 (≈ 7.4 µM)	
CC[C@H](C)[C@H](NC(=O)[C@H](CC(C)C)NC(=O)[C@H](Cc1c[nH]c2ccccc12)NC(=O)[C@H](Cc1ccc(N)cc1)NC(=O)[C@@H](NC(=O)[C@H](CCCCN)NC(=O)[C@H](CO)NC(=O)[C@@H](N)CCCCN)C(C)C)C(=O)N[C@@H](CCC(N)=O)C(=O)N[C@@H](CC(C)C)C(=O)N[C@@H](Cc1ccccc1)C(=O)N[C@@H](Cc1c[nH]cn1)C(=O)N[C@@H](CCCCN)C(=O)N[C@@H](CCCCN)C(=O)O [BPI.134] (H-KSKV[Phe(4-NH2)]WLIQLFHKK-OH; N-terminus and C-terminus assumed)	1254.98		162.50 pmol	b (no detectable activity up to 5 μg/well)	580.11 pmol			12.50 (≈ 6.88 µM)	
CC[C@H](C)[C@H](NC(=O)[C@H](CC(C)C)NC(=O)[C@H](Cc1c[nH]c2ccccc12)NC(=O)CNC(=O)[C@@H](NC(=O)[C@H](CCCCN)NC(=O)[C@H](CO)NC(=O)[C@@H](N)CCCCN)C(C)C)C(=O)N[C@@H](CCC(N)=O)C(=O)N[C@@H](Cc1cccc2ccccc12)C(=O)N[C@@H](Cc1ccccc1)C(=O)N[C@@H](Cc1c[nH]cn1)C(=O)N[C@@H](CCCCN)C(=O)N[C@@H](CCCCN)C(=O)O [BPI.143] (H-KSKVGWLIQ[1Nal]FHKK-OH; N-terminus and C-terminus assumed)	>2838.99		12,388.45 pmol	b (no detectable activity up to 5 μg/well)	b (no detectable activity up to 5 μg/well)			25.00 (≈ 13.9 µM)	
CC[C@H](C)[C@H](NC(=O)[C@H](CC(C)C)NC(=O)[C@H](CC1CCCCC1)NC(=O)CNC(=O)[C@@H](NC(=O)[C@H](CCCCN)NC(=O)[C@H](CO)NC(=O)[C@@H](N)CCCCN)C(C)C)C(=O)N[C@@H](CCC(N)=O)C(=O)N[C@@H](CC(C)C)C(=O)N[C@@H](Cc1ccccc1)C(=O)N[C@@H](Cc1c[nH]cn1)C(=O)N[C@@H](CCCCN)C(=O)N[C@@H](CCCCN)C(=O)O [BPI.144] (H-KSKVG[Cha]LIQLFHKK-OH; N-terminus and C-terminus assumed)	695.19		510.02 pmol	b (no detectable activity up to 5 μg/well)	b (no detectable activity up to 5 μg/well)			12.50 (≈ 7.44 µM)	
KSKVGVLIQLFHKK [BPI.166]	170.65		514.00 pmol	b (no detectable activity up to 5 μg/well)	9,586.00 pmol			3.13	
KSKVGWLIALFHKK [BPI.39]	1791.81		316.20 pmol		b (no detectable activity up to 5 μg/well)	335.6	0.757	12.50	greater than 8 fold
KSKVGWLIKLFHKK [BPI.92]	298.72		331.80 pmol	b (no detectable activity up to 5 μg/well)	b (no detectable activity up to 5 μg/well)	227.3	0.667	3.13	
KSKVGWLIQLFLKK [BPI.87]	>1535.78		188.72 pmol	868,991.70 pmol	23,949.00 pmol	280.0	0.575		
KSKVGWLIQWFHKK [BPI.142]	1243.79		922.21 pmol	b (no detectable activity up to 5 μg/well)	b (no detectable activity up to 5 μg/well)			12.50	
KSKVGYLIQLFHKK [BPI.139]	322.96		1,261.37 pmol	b (no detectable activity up to 5 μg/well)	3,793.91 pmol			6.25	
KSKVKFLIQLFHKK [BPI.138]	256.82		64.57 pmol	b (no detectable activity up to 5 μg/well)	995.40 pmol			3.13	
KSKVKWLIQLFHKK [BPI.97]	213.22		295.58 pmol	b (no detectable activity up to 5 μg/well)	b (no detectable activity up to 5 μg/well)	252.2	0.765	3.13	
KSKVLWLIQLFHKK [BPI.85]	>1881.18		227.35 pmol	14,677.13 pmol	295,208.43 pmol	233.1	0.682		
KWKVFKKIEKKSKVGWLIQLFHKK [BPI.149]	>1397.76		44.00 pmol	b (no detectable activity up to 5 μg/well)	391.00 pmol			12.50	
